Laboratory results published in patent US20160281089A1, “PREVENTION OF VIRAL INFECTIVITY” (priority 2005, published 2016).

How the values were obtained:
FUGW virus = assay: Intravaginal treatment of FUGW virus with ODN A, lavage, real-time PCR; type: in vivo, C57BL/6 mice; conditions: 25 μM ODN, 4 h in the vagina
Excerpt: In order to analyse the efficiency of the ODN A in the vagina, we used a recombinant retrovirus vector (FUGW) and placed the virus with and without ODN A into the vagina. We recover the virus by lavage and tested the RNA copies by real-time PCR. […] Two different virus concentration were used. The effect can be approved due by adaptation to mucosal condition of the vagina.
The FUGW virus was used, which is a recombinant retrovirus on the basis of HIV but with safety properties. It contains a PPT identical to HIV. The virus was prepared as described (Lois C., Hong E. J., Pease S., Brown E. J. and Baltimore D. (2002). “Germline Transmission and Tissue-Specific Expression of Transgenes Delivered by Lentiviral Vectors”, Science 295, 868-872).
The incubation was followed by a lavage of the vagina. Then lavage samples from the vagina were collected for RNA extraction using QIAamp viral RNA kit. RNA were eluted in 30 μl elution buffer. For reverse transcription, 2 μl RNA were used in 12.5 μl volume and 3 μl of the cDNA were used for real time PCR. Virus reduction is dependent on the ratio of ODN A to virus titer and the reduction is 2 fold for 10^4 IU.

RT/RNaseH [1] = biological target: T1, RT/RNaseH (Human immunodeficiency virus type 1 group M subtype B, UniProt P04585); assay: Primer extension assay on synthetic RNA2; type: biochemical, HIV-1; set-up: the HIV RT/RNase H is a heterodimer of p66 and p51 with and without RNase H; conditions: synthetic RNA2, FIG. 2B
Excerpt: To test whether an ODN-mediated activity would preferentially occur at the PPT, we analysed ODNs targeted to the extended PPT (ODN A) or to a region outside of the PPT (ODN CO and an external antisense oligodeoxynucleotide asEXT) in vitro. We used RNA2, which contains the PPT and the binding sites for ODN A, asEXT and ODN CO. […] Indeed, in the reaction mixture containing both ODN A and asEXT primers, extension products, predominantly synthesized by the RT/RNaseH, started with ODN A and not asEXT (FIG. 2B). […] Thus, the ability of the ODN A to mediate RT/RNaseH-dependent cleavage of the viral RNA is PPT-dependent.
(A) Cleavage assay. 10 nM of in vitro transcribed 5′-labeled RNA was hybridized with 10, 100 and 1000 nM of ODN A and incubated in the presence of RT/RNaseH. The cleavage products were analyzed by denaturing PAGE as described in Materials and methods. (B). Primer extension assay. Synthetic RNA2 was hybridized with ODN A, antisense primer (asEXT) or both primers combined, and the primer extension was performed as described in Materials and Methods. Elongation products were analysed by 8 M urea/10% PAGE. (C) Cleavage assay. RNA/ODN hybrids, obtained using 10 nM of RNA2 and 10 nM of ODN A, asPPT or ODN CO were incubated with RT/RNaseH and cleavage products were analyzed by denaturing PAGE as described in Materials and methods. […]

RT/RNaseH [2] = biological target: T1, RT/RNaseH; conditions: high concentrations; previously shown (ref. 12); cited from earlier work
SFFV = assay: NIH 3T3 cells infected with SFFV for 2 h and then treated; type: cell-based; conditions: treatment 2 h after infection, three concentrations, no carrier, three days post-infection
Description: In the next experiment NIH 3T3 cells were infected with SFFV for 2 h and then treated with three different concentrations each of ODN M, asPPT, and three different siRNAs.
c. NIH-3T3 cells were infected with SFFV for 2 hours and then treated with three decreasing concentrations of ODN M, asPPT and three different PPT-specific siRNAs. RNA was isolated from supernatants three days post-infection and analyzed by real time RT-PCR.

[3] = biological target: T2, recombinant M-MuLV RT/RNase H (Moloney murine leukemia virus, UniProt P03355); assay: In vitro cleavage of synthetic SFFV PPT-RNA with recombinant M-MuLV RT/RNase H; type: biochemical; conditions: 5'-end-labelled RNA
T2 construct: The 80 kDa RT/RNase H of M-MuLV is a monomer
Excerpt: To test, whether ODN M would have similar effects as ODN A, we tested the ability of ODN M to induce cleavage of SFFV RNA in the presence of the recombinant M-MuLV RT/RNase H. We used synthetic 5′-end-labelled RNA, which contains the extended PPT of SFFV and sequences of the viral genome dose to the PPT. […] M-MuLV RT/RNase H induced ODN M-mediated cleavage in a dose-dependent manner (FIG. 8b left). The cleavage induced by the various ODNs leads to degradation of the SFFV PPT-RNA in vitro as shown (FIG. 8b right). […] We concluded that SFFV could serve as model for HIV.
a. 5′-labeled synthetic PPT-RNAs of SFFV (left) and HIV-1 (right) were annealed and cleaved with recombinant M-MuLV or HIV-1 RT/RNase H in the absence or presence of ODN M or ODN A. Cleavage products were analyzed by 8M urea-containing PAGE (6%). Filled arrowheads correspond to the specific RT/RNase H cleavage sites, open arrowheads to additional cleavage sites. RNase T1-digested RNA (RNase T1) served as marker. M indicates the Decade Marker.
b. Titration of recombinant M-MuLV RT/RNase H in the presence of ODN M (50 nM) and 5′-labeled SFFV-PPT-RNA. […] 5′-labeled SFFV-PPT-RNA or control RNA without PPT (Con.) were hybridized with the ODNs and treated with and without MuLV RT/RNase H for in vitro cleavage as indicated and analyzed by 8M urea-containing PAGE (10%, right).

Sequence: TTTTCTTTTGGGGGGTTTGGTTGGGTTTTCCCTTCCAGTCCCCCCTTTTCTTTT (phosphorothioate linkages, further chemistry not given here) [ODN A]
- reduction of virus RNA copies / titer recovered by lavage (FUGW virus): twofold
- reduction of virus RNA copies / titer recovered by lavage (FUGW virus; listed as ODNA A): factor of two
- virus reduction (FUGW virus; 10^4 IU FUGW-virus): 2 fold
- primer extension by RT/RNaseH compared to asEXT (RT/RNaseH [1]): more efficiently
- concentration at which ODN inhibits the RT/RNaseH activity in vitro (RT/RNaseH [2]): ≥ 1 µM

Sequence: TCTTTTTGGGGGGTTTGTTTGTTTTTTCTTTCATTCCCCCCTTTTTCT (chemistry not given here) [ODN M, 22-mer antisense and 22-mer second strand connected by T4, targeted to extended PPT of SFFV]
- antiviral effect, SFFV RNA in supernatants (SFFV): slightly superior to the asPPT but much stronger compared to siRNA
- cleavage of synthetic SFFV PPT-RNA [3]: cleaved
